How the values were obtained:
[1] = tested on: adiponectin; test: Adiponectin expression in 3T3-L1 cells (real-time PCR); assay type: cell-based, mouse
Procedure: (§1) The MTT assay of 3T3-L1 adipocytes grown in the medium containing vehicle or cytopiloyne at the indicated concentration for 24 hr is shown (A). 3T3-L1 pre-adipocytes were initiated for differentiation with DMSO (vehicle) and a mixture of Dex, IBMX and insulin for 2 days (B). The differentiating cells were then incubated with vehicle (inducer), rosiglitazone (RSG) or different doses of cytopiloyne until complete differentiation occurred. Lipid droplets from all the cells were visualized by Oil-Red-O staining and examined by light microscopy (left panel). Scale bars=10 μm. Oil Red O inside the cells was extracted and quantified at 520 nm (right panel). Expression of PPAR-γ and C/EBPα in 3T3-L1 cells treated with inducer in the presence of rosiglitazone (RSG) or cytopiloyne was analyzed by Western blot (C). The relative expression level (REL) of aP2 and adiponectin in 3T3-L1 cells was measured using real-time PCR (D). Effect of cytopiloyne on differentiation of human SGBS cells. The cells were incubated with DMEM/F12 medium (vehicle) or differentiation medium for 3 days (E). The cells were then incubated with vehicle (inducer) and cytopiloyne (25 μM) until a complete differentiation. The cells were stained with Oil Red O and photographed. Scale bar=20 μm. […]

[2] = tested on: 3T3-L1 pre-adipocytes; test: Differentiation of 3T3-L1 pre-adipocytes, Oil Red O staining and lipid quantification; assay type: cell-based, mouse; details: 3T3-L1, inducer (Dex, IBMX and insulin) plus test substance
Procedure: as §1, with “(E).” for “(E). The cells were then incubated with vehicle (inducer) and cytopiloyne (25 μM) until a complete differentiation. The cells were stained with Oil Red O and photographed. Scale bar=20 μm.”
(§2) The differentiated adipocytes were washed with phosphate-buffered saline (PBS) and fixed with 4% formaldehyde for 15 min. […] For lipid quantification, isopropanol was used to extract the intracellular oil red O, followed by measurement at 520 nm using a microplate reader.

[3] = tested on: PPARγ; test: PPARγ expression in 3T3-L1 cells (Western blot); assay type: cell-based, mouse; details: inducer plus test substance
Procedure: 3T3-L1 pre-adipocytes were initiated for differentiation with DMSO (vehicle) and a mixture of Dex, IBMX and insulin for 2 days (B). The differentiating cells were then incubated with vehicle (inducer), rosiglitazone (RSG) or different doses of cytopiloyne until complete differentiation occurred. […] Expression of PPAR-γ and C/EBPα in 3T3-L1 cells treated with inducer in the presence of rosiglitazone (RSG) or cytopiloyne was analyzed by Western blot (C).
3T3-L1 cells were maintained in DMEM medium containing 10% FBS, 4 mM glutamine, 4.5 g/L glucose, 1 mM sodium pyruvate, and 1.5 g/L sodium bicarbonate. The differentiation of 3T3-L1 cells into adipocytes was initiated by the addition of 10 μM Dex, 0.5 mM IBMX and 10 μg/mL insulin to the confluent cells for 2 days. The cells were then differentiated in medium containing 10 μg/mL insulin together with DMSO, rosiglitazone and cytopiloyne for an additional 8 to 10 days. The medium was changed every 2 days until the differentiation was complete.

[4] = tested on: human SGBS cells; test: Differentiation of human SGBS cells, Oil Red O staining; assay type: cell-based; details: 25 μM
Procedure: as §1, with “(E).” for “(E). The cells were then incubated with vehicle (inducer) and cytopiloyne (25 μM) until a complete differentiation. The cells were stained with Oil Red O and photographed. Scale bar=20 μm.”
as §2

[5] = tested on: C/EBPα; test: C/EBPα expression in 3T3-L1 cells (Western blot); assay type: cell-based, mouse; details: inducer plus test substance
Procedure: as §1, with “differentiation.” for “differentiation. The cells were stained with Oil Red O and photographed. Scale bar=20 μm.”
Western Blot. […] After developing with ECL substrate (GE Healthcare, UK), the membranes were detected using FLUORCHEM™ HD2 system (Bio-Techne, Minneapolis, Minn., USA).

[6] = tested on: 3T3-L1 adipocytes; test: MTT assay of cell viability of adipocytes; assay type: cell-based, mouse; details: 24 hr
Procedure: as §1, with “differentiation.” for “differentiation. The cells were stained with Oil Red O and photographed. Scale bar=20 μm.”
MTT assay was used to determine cell viability of adipocytes. […] The plate was measured at 570 nm (signal) and 650 nm (reference) using a microplate reader (UVM340, Biochrom, UK).

[7] = tested on: aP2; test: aP2 expression in 3T3-L1 cells (real-time PCR); assay type: cell-based, mouse
Procedure: as §1

SMILES: CC#CC#CC#CC#CCCC(CO)O[C@@H]1O[C@H](CO)[C@@H](O)[C@H](O)[C@H]1O (stereo partly drawn) [cytopiloyne, 2-β-D-glucopyranosyloxy-1-hydroxytrideca-5,7,9,11-tetrayne]
- expression level of adiponectin up-regulated by the inducer [1]: abolished this up-regulation
- production of lipid droplets in adipocytes [2]: dose-dependently inhibited this production
- PPARγ expression up-regulated by the inducer [3]: abolished the up-regulation
- production of lipid droplets [4]: inhibitory effect of cytopiloyne on the production of lipid droplets was confirmed
- C/EBPα expression up-regulated by the inducer [5]: abolished the up-regulation
- cytotoxicity (MTT) ([6]; 3T3-L1, 25 μM or less): did not show cytotoxicity
- cytotoxicity (MTT) ([6]; 3T3-L1, 50 μM): slight cytotoxicity
- expression level of aP2 up-regulated by the inducer [7]: abolished this up-regulation
